Measurements taken from ChEMBL document CHEMBL1128022, “Potent and selective inhibitors of gelatinase-A 2. carboxylic and phosphonic acid derivatives” (Bioorg Med Chem Lett, 1994).
pKi: −log10 of the molar value.

What was measured:
Stromelysin-1 = Stromelysin-1 (Homo sapiens, UniProt P08254); test: Inhibition of the Stromelysin enzyme was determined from purified NSO cells.
Interstitial collagenase = biological target: T1, Interstitial collagenase (Homo sapiens, UniProt P03956); test: Inhibition of the Collagenase enzyme was determined from purified NSO cells.
T1 sequence (P03956 whole entry): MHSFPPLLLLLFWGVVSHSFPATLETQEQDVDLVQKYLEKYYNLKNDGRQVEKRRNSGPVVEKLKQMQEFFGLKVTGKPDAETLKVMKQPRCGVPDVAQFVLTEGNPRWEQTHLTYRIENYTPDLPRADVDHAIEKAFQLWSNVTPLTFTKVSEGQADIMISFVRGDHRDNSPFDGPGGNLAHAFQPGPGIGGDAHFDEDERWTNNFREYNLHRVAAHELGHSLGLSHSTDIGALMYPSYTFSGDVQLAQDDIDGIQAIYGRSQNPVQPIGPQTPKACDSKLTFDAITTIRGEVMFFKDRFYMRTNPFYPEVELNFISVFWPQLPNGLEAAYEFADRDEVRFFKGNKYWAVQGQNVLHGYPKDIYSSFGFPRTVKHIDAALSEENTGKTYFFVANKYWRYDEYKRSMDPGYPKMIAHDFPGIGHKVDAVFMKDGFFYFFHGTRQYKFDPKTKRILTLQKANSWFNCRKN

[1] = biological target: 72 kDa type IV collagenase (Homo sapiens, UniProt P08253); test: Inhibition of the Gelatinase-A enzyme was determined from purified NSO cells.
72 kDa type IV collagenase, sequence (P08253 whole entry): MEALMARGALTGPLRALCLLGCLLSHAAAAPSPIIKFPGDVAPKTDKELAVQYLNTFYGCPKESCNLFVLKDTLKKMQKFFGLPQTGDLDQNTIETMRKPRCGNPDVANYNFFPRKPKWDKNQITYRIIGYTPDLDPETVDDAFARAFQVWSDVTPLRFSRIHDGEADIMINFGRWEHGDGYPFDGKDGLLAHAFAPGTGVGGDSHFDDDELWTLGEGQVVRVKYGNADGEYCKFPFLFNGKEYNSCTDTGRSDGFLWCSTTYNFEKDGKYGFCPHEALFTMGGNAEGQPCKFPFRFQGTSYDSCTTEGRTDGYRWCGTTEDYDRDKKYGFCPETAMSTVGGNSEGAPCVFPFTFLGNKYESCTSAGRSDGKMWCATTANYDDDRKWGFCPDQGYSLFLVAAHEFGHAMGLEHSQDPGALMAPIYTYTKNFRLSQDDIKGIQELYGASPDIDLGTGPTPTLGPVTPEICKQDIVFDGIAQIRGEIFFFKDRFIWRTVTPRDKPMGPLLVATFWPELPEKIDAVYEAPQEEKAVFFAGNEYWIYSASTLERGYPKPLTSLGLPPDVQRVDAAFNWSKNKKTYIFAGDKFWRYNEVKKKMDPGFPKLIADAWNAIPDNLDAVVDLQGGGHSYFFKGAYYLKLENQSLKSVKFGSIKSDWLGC

Stromelysin-1, sequence (P08254 whole entry): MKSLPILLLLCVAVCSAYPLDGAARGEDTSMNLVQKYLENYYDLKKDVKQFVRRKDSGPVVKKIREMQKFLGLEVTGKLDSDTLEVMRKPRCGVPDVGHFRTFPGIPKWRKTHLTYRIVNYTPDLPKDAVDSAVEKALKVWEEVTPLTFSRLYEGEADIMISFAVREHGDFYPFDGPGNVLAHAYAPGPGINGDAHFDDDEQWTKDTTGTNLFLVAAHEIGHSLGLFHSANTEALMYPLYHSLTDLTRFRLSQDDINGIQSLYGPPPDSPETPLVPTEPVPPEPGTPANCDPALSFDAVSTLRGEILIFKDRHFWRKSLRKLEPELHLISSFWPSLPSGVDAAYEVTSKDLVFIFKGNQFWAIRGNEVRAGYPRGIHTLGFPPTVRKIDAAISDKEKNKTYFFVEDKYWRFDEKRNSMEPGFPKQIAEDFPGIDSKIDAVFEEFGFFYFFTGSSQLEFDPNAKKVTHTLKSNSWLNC

| SMILES | pKi (Stromelysin-1) | pKi (Interstitial collagenase) | pKi [1] |
| --- | --- | --- | --- |
| Cc1ccc(CCC[C@H](CC(=O)O)C(=O)N[C@@H](CC2CCCCC2)C(=O)NCCC(=O)O)cc1 | 6.49 | 4.00 | 8.42 |
| O=C(N[C@@H](CC1CCCCC1)C(=O)NCCN1CCOCC1)[C@H](CCCc1ccccc1)CP(=O)(O)O | 5.08 | 4.00 | 6.09 |
| Cc1ccc(CCC[C@H](CC(=O)O)C(=O)N[C@@H](CC2CCCCC2)C(=O)NCCCCN2CCOCC2)cc1 | 6.45 | 4.26 | 7.99 |
| NC(=O)[C@H](CC1CCCCC1)NC(=O)[C@H](CCCc1ccccc1)CC(=O)O | 5.51 | 4.00 | 6.91 |
| O=C(O)CCNC(=O)[C@H](CC1CCCCC1)NC(=O)[C@H](CCCc1ccccc1)CP(=O)(O)O | 6.02 | 4.66 | 7.33 |
| Cc1ccc(CCC[C@H](CC(=O)O)C(=O)N[C@@H](CC2CCCCC2)C(=O)NCCc2ccccc2)cc1 | 6.33 | 4.66 | 9.00 |
| COc1ccc(CCC[C@H](CC(=O)O)C(=O)N[C@@H](CC2CCCCC2)C(=O)NCCc2ccc(S(N)(=O)=O)cc2)cc1 | 5.95 | 5.00 | 8.74 |
| NS(=O)(=O)c1ccc(CCNC(=O)[C@H](CC2CCCCC2)NC(=O)[C@H](CCCc2ccc(Cl)cc2)CC(=O)O)cc1 | 6.45 | 4.26 | 8.99 |
| NS(=O)(=O)c1ccc(CCNC(=O)[C@H](CC2CCCCC2)NC(=O)[C@H](CCCc2ccccc2)CC(=O)O)cc1 | 6.02 | 4.40 | 8.19 |
| O=C(N[C@@H](CC1CCCCC1)C(=O)NCCc1ccccc1)[C@H](CCCc1ccccc1)CP(=O)(O)O | 6.15 | 4.60 | 7.72 |
| COC(=O)CCNC(=O)[C@H](CC1CCCCC1)NC(=O)[C@H](CCCc1ccc(C)cc1)CC(=O)O | 6.45 | 4.38 | 8.93 |
| O=C(C[C@@H](CCCc1ccccc1)C(=O)N[C@@H](CC1CCCCC1)C(=O)NCCc1ccccc1)NO |  |  | 10.22 |
| NC(=O)CCCNC(=O)[C@H](CC1CCCCC1)NC(=O)[C@H](CCCc1ccccc1)CC(=O)O | 5.97 | 4.55 | 8.51 |
| Cc1ccc(CCC[C@H](CC(=O)O)C(=O)N[C@@H](CC2CCCCC2)C(=O)NCCc2ccc(S(N)(=O)=O)cc2)cc1 | 6.42 | 4.32 | 9.05 |
| CC(C)Cc1ccc(CCC[C@H](CC(=O)O)C(=O)N[C@@H](CC2CCCCC2)C(=O)NCCc2ccccc2)cc1 | < 5.00 | < 5.00 | 6.80 |
| O=C(O)C[C@H](CCCc1ccccc1)C(=O)N[C@@H](CC1CCCCC1)C(=O)NCCc1ccccc1 | 4.70 |  |  |
| Cc1ccc(CCC[C@H](CP(=O)(O)O)C(=O)N[C@@H](CC2CCCCC2)C(=O)NCCc2ccccc2)cc1 (stereo in doubt; form 1) | 4.67 | 4.00 | 6.44 |
| Cc1ccc(CCC[C@H](CP(=O)(O)O)C(=O)N[C@@H](CC2CCCCC2)C(=O)NCCc2ccccc2)cc1 (stereo in doubt; form 2) | 6.56 | 4.77 | 8.60 |
